ChEMBL document CHEMBL5042552, “Site-Specific Isopeptide Bond Formation: A Powerful Tool for the Generation of Potent and Nontoxic Antimicrobial Peptides” (J Med Chem, 2022)
Activity calls are given as the source filed them. No cut-off for these calls is given here. Starred links: 1 amine or outer side, 2 acyl side, 3 side chain; linkers in the order of their positions; H or OH if unused. Positions of bridges follow the written chain, without caps; N, C: chain ends. Non-standard residues stand in square brackets, D forms with d. Residues, ends and D or L forms follow the SMILES beside them. Groups on a side chain read outwards from the residue. Chains are numbered I, II in the order given. εLys = N[C@@H](CCCCN[*:1])C(=O)[*:2]

How the values were obtained:
[1] = Hemolytic activity in human erythrocytes at 2.5 to 80 uM incubated for 1 hr by microplate reader assay; type: toxicity, cell-based; details: erythrocyte, dose 2.5-80 µM
[2] = system: HEK293; assay: Cytotoxicity against HEK293 cells assessed as reduction in cell viability at 10 to 100 uM incubated for 24 hrs by XTT assay; type: toxicity, cell-based; details: human, hek293, 24 h, dose 10-100 µM
[3] = system: RAW264.7; assay: Cytotoxicity against mouse RAW264.7 cells assessed as reduction in cell viability at 10 to 100 uM incubated for 24 hrs by XTT assay; type: toxicity, cell-based; details: raw264.7, 24 h, dose 10-100 µM
[4] = target: Trypsin (Homo sapiens, UniProt P07477+P07478+P35030); assay: Stability of compound assessed as trypsin (unknown origin) mediated compound degradation at 100 uM measured after 30 mins by RP-HPLC method; type: ADME, protein assay; details: 0.5 h
[5] = Stability in human plasma after 2 hrs by RP-HPLC method; type: ADME, cell-free
[6] = system: Escherichia coli; assay: Induction of membrane permeabilization in Escherichia coli at MIC concentration by SYTOX-green staining based flow cytometry method; type: functional
[7] = system: RAW264.7; assay: Cytotoxicity against mouse RAW264.7 cells assessed as reduction in cell viability at 100 uM incubated for 24 hrs by XTT assay; type: toxicity, cell-based; details: raw264.7, 24 h
[8] = system: Pseudomonas aeruginosa; assay: Induction of membrane permeabilization in Pseudomonas aeruginosa at MIC concentration by SYTOX-green staining based flow cytometry method; type: functional
[9] = system: Staphylococcus aureus; assay: Induction of membrane permeabilization in Staphylococcus aureus at MIC concentration by SYTOX-green staining based flow cytometry method; type: functional
[10] = system: Bacillus subtilis; assay: Induction of membrane permeabilization in Bacillus subtilis at MIC concentration by SYTOX-green staining based flow cytometry method; type: functional
[11] = system: Cell membrane; assay: Disruption of membrane integrity in Pseudomonas aeruginosa at MIC by […] green dye based confocal microscopy analysis
[12] = system: Cell membrane; assay: Disruption of membrane integrity in Escherichia coli at MIC by […] green dye based confocal microscopy analysis
[13] = system: Cell membrane; assay: Disruption of membrane integrity in Staphylococcus aureus at MIC by […] green dye based confocal microscopy analysis
[14] = system: Cell membrane; assay: Disruption of membrane integrity in Bacillus subtilis at MIC by […] green dye based confocal microscopy analysis
[15] = Hemolytic activity in human erythrocytes at 80 uM incubated for 1 hr by microplate reader assay; type: toxicity, cell-based; details: erythrocyte
[16] = Hemolytic activity in human erythrocytes at 12.5 uM incubated for 1 hr by microplate reader assay; type: toxicity, cell-based; details: erythrocyte

| Stability [4] | Stability [5] | SMILES | Activity [1] | Activity [2] | Activity [3] | Activity [6] [%] | Activity [7] | Activity [8] [%] | Activity [9] [%] | Activity [10] [%] | Activity [11] | Activity [12] | Activity [13] | Activity [14] | Activity [15] | Activity [16] |
| --- | --- | --- | --- | --- | --- | --- | --- | --- | --- | --- | --- | --- | --- | --- | --- | --- |
| Unstable | Stable | CC(C)C[C@H](NC(=O)[C@H](CC(C)C)NC(=O)[C@H](CCCCN)NC(=O)[C@H](CC(C)C)NC(=O)[C@H](CC(C)C)NC(=O)[C@H](CCCCN)NC(=O)[C@H](CCCCN)NC(=O)[C@H](CC(C)C)NC(=O)[C@H](CC(C)C)NC(=O)[C@H](CCCCN)NC(=O)[C@@H](N)CCCCNC(=O)[C@H](CC(C)C)NC(=O)[C@H](CC(C)C)NC(=O)[C@H](CCCCN)NC(=O)[C@@H](N)CC(C)C)C(N)=O (H-K([Leu-Leu-Lys-Leu])KLLKKLLKLL-NH2) | Non-Toxic | Toxic | Toxic |  |  |  |  |  |  |  |  |  |  |  |
| Unstable | Stable | CC(C)C[C@H](NC(=O)[C@H](CC(C)C)NC(=O)[C@H](CCCCN)NC(=O)[C@H](CC(C)C)NC(=O)[C@H](CC(C)C)NC(=O)[C@H](CCCCN)NC(=O)[C@H](CCCCN)NC(=O)[C@H](CC(C)C)NC(=O)[C@H](CC(C)C)NC(=O)[C@@H](N)CCCCNC(=O)[C@H](CCCCN)NC(=O)[C@H](CC(C)C)NC(=O)[C@H](CC(C)C)NC(=O)[C@H](CCCCN)NC(=O)[C@@H](N)CC(C)C)C(N)=O (I: H-KLLKKLLKLL-NH2 / II: H-LKLLK; amide I:1-II:C) | Non-Toxic | Toxic | Toxic |  |  |  |  |  |  |  |  |  |  |  |
| Unstable | Stable | CC(C)C[C@H](NC(=O)[C@H](CC(C)C)NC(=O)[C@@H](N)CCCCNC(=O)[C@H](CC(C)C)NC(=O)[C@H](CC(C)C)NC(=O)[C@H](CCCCN)NC(=O)[C@H](CCCCN)NC(=O)[C@H](CC(C)C)NC(=O)[C@H](CC(C)C)NC(=O)[C@H](CCCCN)NC(=O)[C@H](CCCCN)NC(=O)[C@H](CC(C)C)NC(=O)[C@H](CC(C)C)NC(=O)[C@H](CCCCN)NC(=O)[C@@H](N)CC(C)C)C(N)=O (H-LKLLKKLLKKLL[εLys]LL-NH2) |  | Toxic | Toxic |  |  |  |  |  |  |  |  |  |  |  |

The next lines start with the compound.

| SMILES | Stability [4] | Stability [5] | Activity [1] | Activity [2] | Activity [3] | Activity [6] [%] | Activity [7] | Activity [8] [%] | Activity [9] [%] | Activity [10] [%] | Activity [11] | Activity [12] | Activity [13] | Activity [14] | Activity [15] | Activity [16] |
| --- | --- | --- | --- | --- | --- | --- | --- | --- | --- | --- | --- | --- | --- | --- | --- | --- |
| CC(C)C[C@H](NC(=O)[C@H](CC(C)C)NC(=O)[C@H](CCCCN)NC(=O)[C@H](CC(C)C)NC(=O)[C@H](CC(C)C)NC(=O)[C@H](CCCCN)NC(=O)[C@@H](N)CCCCNC(=O)[C@H](CC(C)C)NC(=O)[C@H](CC(C)C)NC(=O)[C@H](CCCCN)NC(=O)[C@H](CCCCN)NC(=O)[C@H](CC(C)C)NC(=O)[C@H](CC(C)C)NC(=O)[C@H](CCCCN)NC(=O)[C@@H](N)CC(C)C)C(N)=O (H-LKLLKKLL[εLys]KLLKLL-NH2) |  | Stable |  |  |  | 98 | Non-Toxic | 98 | 89 | 98 | Active | Active | Active | Active | Non-Toxic |  |
| CC(C)C[C@H](NC(=O)[C@H](CC(C)C)NC(=O)[C@H](CCCCN)NC(=O)[C@H](CC(C)C)NC(=O)[C@H](CC(C)C)NC(=O)[C@H](CCCCN)NC(=O)[C@H](CCCCN)NC(=O)[C@H](CC(C)C)NC(=O)[C@H](CC(C)C)NC(=O)[C@H](CCCCN)NC(=O)[C@H](CCCCN)NC(=O)[C@H](CC(C)C)NC(=O)[C@H](CC(C)C)NC(=O)[C@@H](N)CCCCNC(=O)[C@@H](N)CC(C)C)C(N)=O (H-K(Leu)LLKKLLKKLLKLL-NH2) | Unstable | Stable | Non-Toxic | Toxic | Toxic |  |  |  |  |  |  |  |  |  |  |  |
| CC(C)C[C@H](NC(=O)[C@H](CC(C)C)NC(=O)[C@H](CCCCN)NC(=O)[C@H](CC(C)C)NC(=O)[C@H](CC(C)C)NC(=O)[C@H](CCCCN)NC(=O)[C@H](CCCCN)NC(=O)[C@H](CC(C)C)NC(=O)[C@H](CC(C)C)NC(=O)[C@H](CCCCN)NC(=O)[C@H](CCCCN)NC(=O)[C@H](CC(C)C)NC(=O)[C@H](CC(C)C)NC(=O)[C@H](CCCCN)NC(=O)[C@@H](N)CC(C)C)C(N)=O (H-LKLLKKLLKKLLKLL-NH2) | Unstable | Stable |  | Toxic | Toxic | 98 |  | 98 | 46 | 41 | inactive | inactive | inactive | inactive |  | Toxic |
| CC(C)C[C@H](NC(=O)[C@H](CC(C)C)NC(=O)[C@H](CCCCN)NC(=O)[C@H](CC(C)C)NC(=O)[C@H](CC(C)C)NC(=O)[C@@H](N)CCCCNC(=O)[C@H](CCCCN)NC(=O)[C@H](CC(C)C)NC(=O)[C@H](CC(C)C)NC(=O)[C@H](CCCCN)NC(=O)[C@H](CCCCN)NC(=O)[C@H](CC(C)C)NC(=O)[C@H](CC(C)C)NC(=O)[C@H](CCCCN)NC(=O)[C@@H](N)CC(C)C)C(N)=O (H-LKLLKKLLK[εLys]LLKLL-NH2) | Unstable | Stable | Non-Toxic |  |  |  | Non-Toxic |  |  |  |  |  |  |  | Non-Toxic |  |
